The compounds below were run against T1, full-length recombinant human NEK7 (Homo sapiens, UniProt Q8TDX7) (assay: NEK7 enzymatic assay ([33P]-ATP, casein substrate)). Conditions: Table 2b; recombinant human NEK7, casein substrate.
T1 construct: full-length recombinant human NEK7; GST (N); purchased SignalChem N09-10G; host or cells: Sf9 insect cells (baculovirus)
Assay type: biochemical
Procedure: In some embodiments, the IC50 of the compounds of Structure (I), (Ia), (Ib), (Ic), (Id), (Ie), or (If) to inhibit NEK7 was determined by the concentration of the compound required to inhibit 50% of the activity of the NEK kinase.
(§1) Casein substrate (from bovine milk, hydrolyzed and partially dephosphorylated mixture of α, β and κ caseins, obtained from Sigma Aldrich, catalogue #C4765, diluted in distilled water to a final concentration of 1 mg/mL) and full-length recombinant human NEK7 (expressed by baculovirus in Sf9 insect cells using a N-terminal GST tag, obtained from SignalChem, catalogue #N09-10G, 0.1 μg/μL) were mixed in assay buffer (20 mM Hepes pH 7.5, 10 mM MgCl2, 1 mM EGTA, 0.02% Brij35, 0.02 mg/ml BSA, 0.1 mM Na3 VO4, 2 mM DTT, 1% DMSO). Compounds of interest (serial 3-fold dilution in DMSO from 10 μM to 0.5 nM) or vehicle (1% DMSO) were dispensed into the kinase reaction mixture by Acoustic technology (Echo550, nanoliter range). After incubation at room temperature for 20 minutes, the kinase reaction was initiated by addition of [^33P]-ATP (specific activity 10 μCi/μl) and the mixture was incubated at room temperature for 2 hours. The reaction was then stopped by spotting the reaction mixture on strips of phosphocellulose P81 paper. Following washing, the radioactivity of the P81 paper was measured and kinase activity data were expressed as the percent remaining kinase activity in test samples compared to vehicle reactions. IC50 values and curve fits were obtained using Prism (GraphPad Software).
as §1, with “μg/L)” for “μg/μL)”, “Na3VO4,” for “Na3 VO4,”, “(Echo550;” for “(Echo550,”

T1 sequence (Q8TDX7 whole entry): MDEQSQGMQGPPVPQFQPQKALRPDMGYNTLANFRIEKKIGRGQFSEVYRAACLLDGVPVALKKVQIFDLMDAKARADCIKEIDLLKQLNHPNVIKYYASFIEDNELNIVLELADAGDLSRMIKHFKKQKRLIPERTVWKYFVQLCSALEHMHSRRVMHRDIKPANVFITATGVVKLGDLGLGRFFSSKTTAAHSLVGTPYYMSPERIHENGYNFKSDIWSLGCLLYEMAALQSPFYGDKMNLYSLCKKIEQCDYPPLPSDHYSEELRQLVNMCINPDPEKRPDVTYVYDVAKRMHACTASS

Compound	IC50 [nM]
CC(C)(C)c1cc(NC(=O)NC2CCC(Oc3ccnc4[nH]ccc34)CC2)n(-c2ccccc2)n1 (stereo not shown) [Ib-16, 1-(4-((1H-pyrrolo[2,3-b]pyridin-4-yl)oxy)cyclohexyl)-3-(3-(tert-butyl)-1-phenyl-1H-pyrazol-5-yl)urea]	> 1500
O=C(Nc1ccc(Oc2ccnc3[nH]cc(Cl)c23)cc1F)Nc1cc(C2(C(F)(F)F)CC2)nn1-c1ccccc1 [Ib-17, 1-(4-((3-chloro-1H-pyrrolo[2,3-b]pyridin-4-yl)oxy)-2-fluorophenyl)-3-(1-phenyl-3-(1-(trifluoromethyl)cyclopropyl)-1H-pyrazol-5-yl)urea]	> 1500
Cc1nc2c(Oc3ccc(NC(=O)Nc4cc(C(C)(C)C)nn4-c4ccccc4)c(F)c3)ccnc2[nH]1 [Ib-19, 1-(3-(tert-butyl)-1-phenyl-1H-pyrazol-5-yl)-3-(2-fluoro-4-((2-methyl-3H-imidazo[4,5-b]pyridin-7-yl)oxy)phenyl)urea]	> 1500
CC(C)(C)c1cc(NC(=O)NC2CCC(Oc3ccnc4[nH]cc(Cl)c34)CC2)n(-c2ccccc2)n1 (stereo not shown) [Ib-20, 1-(3-(tert-butyl)-1-phenyl-1H-pyrazol-5-yl)-3-(4-((3-chloro-1H-pyrrolo[2,3-b]pyridin-4-yl)oxy)cyclohexyl)urea]	> 1500
CN1CCC(n2nc(C(C)(C)C)cc2NC(=O)Nc2ccc(Oc3ccnc4[nH]cc(Cl)c34)cc2F)CC1 [Ib-21, 1-(3-(tert-butyl)-1-(1-methylpiperidin-4-yl)-1H-pyrazol-5-yl)-3-(4-((3-chloro-1H-pyrrolo[2,3-?]pyridin-4-yl)oxy)-2-fluorophenyl)urea]	> 1500
CC(C)(C)c1cc(NC(=O)Cc2ccc(Oc3ccnc4[nH]cc(Cl)c34)cc2F)n(-c2ccccc2)n1 [Ib-22, N-(3-(tert-butyl)-1-phenyl-1H-pyrazol-5-yl)-2-(4-((3-chloro-1H-pyrrolo[2,3-b]pyridin-4-yl)oxy)-2-fluorophenyl)acetamide]	> 1500

Same assay, conditions: Table 2d; recombinant human NEK7, casein substrate

Compound	IC50 [nM]
Cc1cc(NC(=O)Nc2ccc(-c3nn(C(C)C)c4ncnc(N)c34)cc2)ccc1N1CCOCC1 [Id-1, 1-(4-(4-amino-1-isopropyl-1H-pyrazolo[3,4-J]pyrimidin-3-yl)phenyl)-3-(3-methyl-4-morpholinophenyl)urea]	> 1500
CCN1CCN(Cc2ccc(NC(=O)Nc3ccc(-c4nn(C5CC5)c5ncnc(N)c45)cc3F)cc2C(F)(F)F)CC1 [Id-7, 1-(4-(4-amino-t-cyclopropyl-1H-pyrazolo[3,4-d]pyrimidin-3-yl)-2-fluorophenyl)-3-(4-((4-ethylpiperazin-1-yl)methyl)-3-(trifluoromethyl)phenyl)urea]	> 1500
Cc1cn(-c2ccc(NC(=O)Nc3ccc(-c4cn(C5CC5)c5ncnc(N)c45)cc3F)cc2C(F)(F)F)cn1 [Id-23]	> 1500
Nc1ncnc2c1c(-c1ccc(NC(=O)Nc3ccc(CN4CCOCC4)cc3F)c(F)c1)nn2C1CC1 [Id-26, 1-(4-(4-amino-1-cyclopropyl-1H-pyrazolo[3,4-d]pyrimidin-3-yl)-2-fluorophenyl)-3-(2-fluoro-4-(morpholinomethyl)phenyl)urea]	> 1500
CN1CCN(Cc2ccc(NC(=O)Nc3ccc(-c4nn(C5CC5)c5ncnc(N)c45)cn3)cc2C(F)(F)F)CC1 [Id-29, 1-(5-(4-amino-1-cyclopropyl-1H-pyrazolo[3,4-d]pyrimidin-3-yl)pyridin-2-yl)-3-(4-((4-methylpiperazin-1-yl)methyl)-3-(trifluoromethyl)phenyl)urea]	151 to 300
Cc1cc(NC(=O)Nc2ccc(-c3cn(C4CC4)c4ncnc(N)c34)cc2F)ccc1N1CCOCC1 [Id-32, 1-(4-(4-amino-7-cyclopropyl-7H-pyrrolo[2,3-d]pyrimidin-5-yl)-2-fluorophenyl)-3-(3-methyl-4-morpholinophenyl)urea]	> 1500
CN1CCN(Cc2ccc(NC(=O)Nc3ccc(-c4cn(C5CC5)c5ncnc(N)c45)cc3Cl)cc2C(F)(F)F)CC1 [Id-34, 1-(4-(4-amino-7-cyclopropyl-7H-pyrrolo[2,3-d]pyrimidin-5-yl)-2-chlorophenyl)-3-(4-((4-methylpiperazin-1-yl)methyl)-3-(trifluoromethyl)phenyl)urea]	151 to 300

The next lines start with the values.

IC50 [nM]	Compound
301 to 500	CN1CCN(Cc2ccc(NC(=O)Nc3ccc(-c4cn(C5CC5)c5ncnc(N)c45)cc3F)cc2F)CC1 [Id-35, 1-(4-(4-amino-7-cyclopropyl-7H-pyrrolo[2,3-d]pyrimidin-5-yl)-2-fluorophenyl)-3-(3-fluoro-4-((4-methylpiperazin-1-yl)methyl)phenyl)urea]
< 150	CN1CCN(Cc2ccc(NC(=O)Nc3ccc(-c4cn(C5CC5)c5ncnc(N)c45)cc3F)cc2Cl)CC1 [Id-36, 1-(4-(4-amino-7-cyclopropyl-7H-pyrrolo[2,3-d]pyrimidin-5-yl)-2-fluorophenyl)-3-(3-chloro-4-((4-methylpiperazin-1-yl)methyl)phenyl)urea]
> 1500	COc1cc(NC(=O)Nc2ccc(-c3cn(C4CC4)c4ncnc(N)c34)cc2F)ccc1CN1CCN(C)CC1 [Id-37, 1-(4-(4-amino-7-cyclopropyl-7H-pyrrolo[2,3-d]pyrimidin-5-yl)-2-fluorophenyl)-3-(3-methoxy-4-((4-methylpiperazin-1-yl)methyl)phenyl)urea]
< 150	CCN1CCN(Cc2ccc(NC(=O)Nc3ccc(-c4cn(C5CC5)c5ncnc(N)c45)cc3F)cc2C(F)(F)F)CC1 [Id-40, 1-(4-(4-amino-7-cyclopropyl-7H-pyrrolo[2,3-d]pyrimidin-5-yl)-2-fluorophenyl)-3-(4-((4-ethylpiperazin-1-yl)methyl)-3-(trifluoromethyl)phenyl)urea]
< 150	Nc1ncnc2c1c(-c1ccc(NC(=O)Nc3ccc(CN4CCN(CCO)CC4)c(C(F)(F)F)c3)c(F)c1)cn2C1CC1 [Id-41, 1-(4-(4-amino-7-cyclopropyl-7H-pyrrolo[2,3-d]pyrimidin-5-yl)-2-fluorophenyl)-3-(4-((4-(2-hydroxyethyl)piperazin-1-yl)methyl)-3-(trifluoromethyl)phenyl)urea]
< 150	COCCN1CCN(Cc2ccc(NC(=O)Nc3ccc(-c4cn(C5CC5)c5ncnc(N)c45)cc3F)cc2C(F)(F)F)CC1 [Id-42, 1-(4-(4-amino-7-cyclopropyl-7H-pyrrolo[2,3-d]pyrimidin-5-yl)-2-fluorophenyl)-3-(4-((4-(2-methoxyethyl)piperazin-1-yl)methyl)-3-(trifluoromethyl)phenyl)urea]
< 150	CN1CCCN(Cc2ccc(NC(=O)Nc3ccc(-c4cn(C5CC5)c5ncnc(N)c45)cc3F)cc2C(F)(F)F)CC1 [Id-43, 1-(4-(4-amino-7-cyclopropyl-7H-pyrrolo[2,3-d]pyrimidin-5-yl)-2-fluorophenyl)-3-(4-((4-methyl-1,4-diazepan-1-yl)methyl)-3-(trifluoromethyl)phenyl)urea]
< 150	CN(C)C1CCN(Cc2ccc(NC(=O)Nc3ccc(-c4cn(C5CC5)c5ncnc(N)c45)cc3F)cc2C(F)(F)F)C1 (stereo not shown) [Id-44, 1-(4-(4-amino-7-cyclopropyl-7H-pyrrolo[2,3-d]pyrimidin-5-yl)-2-fluorophenyl)-3-(4-((3-(dimethylamino)pyrrolidin-1-yl)methyl)-3-(trifluoromethyl)phenyl)urea]
501 to 1500	Cc1cn(-c2ccc(NC(=O)Nc3ccc(-c4cn(C5CC5)c5ncnc(N)c45)cc3F)cc2C(F)(F)F)cn1 [Id-45, 1-(4-(4-amino-7-cyclopropyl-7H-pyrrolo[2,3-d]pyrimidin-5-yl)-2-fluorophenyl)-3-(4-(4-methyl-1H-imidazol-1-yl)-3-(trifluoromethyl)phenyl)urea]

— patent US20230210853A1 (Halia Therapeutics, Inc., priority 2020, published 2023)
